In PMC10961359, “Targeting hexokinase 2 for oral cancer therapy: structure-based design and validation of lead compounds” (Frontiers in Pharmacology, 2024):

Tests used:
FaDu oral cancer cells = assay: MTT antiproliferative assay, FaDu; format: cell-based; conditions: Homo sapiens, FaDu; MTT, 72 h treatment; mean ± SEM; read-out: GI50 for FaDu
Protocol: FaDu cell line was cultured in RPMI-1640 medium containing L-glutamine (300 mg/L) and sodium bicarbonate (2 g/L), while Cal27, HEK293 and HFF-1 cell lines were cultured in DMEM medium containing glucose (4.5 g/L), L-glutamine (584 mg/L) and sodium bicarbonate (3.7 g/L). For gene expression and qPCR studies, RNA isolation was performed using Trizol (Thermo). The reagents and the primer sequences employed for the qPCR assays have been described previously ([Chakraborty et al., 2022]).
(§1) The hits derived from the docking study were sourced from either commercial suppliers or pre-existing compounds within our laboratory or were synthesized anew. The FaDu and Cal27 oral cancer cells were treated with the compounds for 72 h at concentrations of 3, 10, 30, and 100 μM. A post-treatment MTT assay was done to evaluate their antiproliferative activity. Table S2 represents the anti-proliferative and enzyme inhibitory activity of the compounds obtained as hits from the structure-based drug design strategy. […] Consequently, 50 μM of all the hit compounds were evaluated for their HK2 enzyme inhibitory activity. 50 μM of compounds were incubated with HK2 protein and the rate of reaction was assessed in kinetic mode (rate of conversion of NAD to NADH). The choice of 50 μM concentration was based primarily on MTT assays and GI50 calculation. The average GI50 values of the hit compounds against less sensitive FaDu cell line was approximately 50 μM. Considering this information, we reasoned that utilizing a concentration equivalent to the average GI50 would allow us to assess the maximum inhibitory effect of the compounds on HK2 enzyme activity. […] The same compounds have been previously reported by our team to have EGFR phosphorylation inhibitory potential and were coded as H2 (compound 14) and H10 (compound 11) ([Chakraborty et al., 2022]). […] Figures 1C,D show the lead compounds H2 and H10 at the active site of HK2 enzyme interacting via H-bonds with the amino acid residues.

HK2 = biological target: T1, HK2 (Homo sapiens, UniProt P52789); assay: HK2 enzyme inhibition assay (Abcam kit ab211114); format: biochemical
T1 construct: purchased Abcam ab211114
T1 sequence (P52789 1-917): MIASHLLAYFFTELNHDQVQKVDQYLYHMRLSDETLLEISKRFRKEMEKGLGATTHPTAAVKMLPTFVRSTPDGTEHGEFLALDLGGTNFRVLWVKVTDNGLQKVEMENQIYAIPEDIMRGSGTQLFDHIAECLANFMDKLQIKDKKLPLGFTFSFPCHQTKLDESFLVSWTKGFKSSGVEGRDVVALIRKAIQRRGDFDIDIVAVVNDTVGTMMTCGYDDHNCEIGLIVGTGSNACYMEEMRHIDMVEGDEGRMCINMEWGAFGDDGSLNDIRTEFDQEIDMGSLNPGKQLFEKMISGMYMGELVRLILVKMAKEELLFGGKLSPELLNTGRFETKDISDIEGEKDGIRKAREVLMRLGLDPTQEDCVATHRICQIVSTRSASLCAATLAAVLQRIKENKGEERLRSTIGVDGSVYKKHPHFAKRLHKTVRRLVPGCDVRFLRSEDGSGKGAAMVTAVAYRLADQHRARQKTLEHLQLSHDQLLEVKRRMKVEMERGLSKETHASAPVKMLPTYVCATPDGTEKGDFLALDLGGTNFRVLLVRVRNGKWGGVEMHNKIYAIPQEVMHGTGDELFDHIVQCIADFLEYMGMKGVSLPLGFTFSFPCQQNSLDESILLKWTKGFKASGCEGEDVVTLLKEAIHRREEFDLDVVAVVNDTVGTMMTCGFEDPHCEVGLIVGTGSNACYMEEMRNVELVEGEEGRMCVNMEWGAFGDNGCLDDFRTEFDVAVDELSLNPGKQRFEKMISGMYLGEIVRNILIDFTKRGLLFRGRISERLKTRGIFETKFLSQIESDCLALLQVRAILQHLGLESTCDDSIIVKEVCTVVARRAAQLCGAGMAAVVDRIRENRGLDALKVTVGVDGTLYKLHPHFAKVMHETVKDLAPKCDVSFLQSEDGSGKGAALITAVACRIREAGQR
Protocol: The HK2 enzyme inhibition assay was performed using an HK2 inhibitor assay kit (Abcam, ab211114) according to the manufacturer’s instructions. Initially, 50 µM compound concentration was used to perform the enzyme activity inhibition studies, after which IC50 of the top leads were determined.
as §1

Cal27 cells = assay: Annexin V FITC / propidium iodide apoptosis assay, Cal27; format: cell-based; conditions: Cal27, 10 and 30 μM, 72 h
Protocol: FaDu and Cal27 cells were treated with the test compounds (0.5 million cells per treatment) for 72 h, and harvested for cell cycle analysis (Cat# BD340242) and apoptosis analysis (Cat# BD556547) by flow cytometry according to manufacturer’s instructions.
To determine the effect of HK2 inhibition in the progression of the cell cycle, flow cytometric analysis of compound-treated FaDu and Cal27 cells was carried out 72 h post-treatment. Cell cycle analysis is carried out to quantify the DNA content and estimate the percentages of the cell population in different cell cycle phases via propidium iodide staining. […] To determine the apoptosis-inducing activity of HK2 inhibitors, 10 and 30 μM of compounds H2 and H10 treated FaDu and Cal27 cells were stained with annexin V conjugated with FITC, followed by propidium iodide staining.

[1] = system: EGFR tyrosine kinase receptor phosphorylation; parameters: method as in Chakraborty et al., 2022; conditions: 10 µM, 72 h of treatment; ref Chakraborty et al., 2022; cited from earlier work

With `COc1ccc(CNC(=O)c2nc3ccccc3s2)cc1O` [Compound 14, N-(3-hydroxy-4methoxybenzyl)benzo[d]thiazole-2-carboxamide] the GI50 (FaDu oral cancer cells) was 63.1 µM, the inhibition at 50 µM (HK2; read-out: % inhibition of HK2 enzyme activity at 50 µM) was 87% and the IC50 (HK2; read-out: IC50 against HK2) was 2.94 ± 0.2 µM. The apoptosis-inducing activity (Cal27 cells) was “late apoptotic and necrotic effects” and the “phosphorylation of the EGFR tyrosine kinase receptor” value [1] was “inhibits the phosphorylation”.
